“Also recorded” adds a separate entry of the source.
Columns and labels:
human A3AR [1] = target: T1, human A3AR (Homo sapiens, UniProt P0DMS8); assay: GloSensor cAMP accumulation assay (agonism/antagonism) at A3AR in CHO cells; format: cell-based; set-up: expressed in transfected cells; host or cells: CHO cells stably expressing A3AR and the GloSensor biosensor plasmid; conditions: for IC50: antagonism: counteracting agonist (NECA 1 μM) induced decrease of cAMP, forskolin 10 μM, mean ± S.E.; for functional behaviour at A3AR (agonist/antagonist): forskolin 10 µM stimulated cAMP, compared to Cl-IB-MECA
T1 sequence (P0DMS8 1-318): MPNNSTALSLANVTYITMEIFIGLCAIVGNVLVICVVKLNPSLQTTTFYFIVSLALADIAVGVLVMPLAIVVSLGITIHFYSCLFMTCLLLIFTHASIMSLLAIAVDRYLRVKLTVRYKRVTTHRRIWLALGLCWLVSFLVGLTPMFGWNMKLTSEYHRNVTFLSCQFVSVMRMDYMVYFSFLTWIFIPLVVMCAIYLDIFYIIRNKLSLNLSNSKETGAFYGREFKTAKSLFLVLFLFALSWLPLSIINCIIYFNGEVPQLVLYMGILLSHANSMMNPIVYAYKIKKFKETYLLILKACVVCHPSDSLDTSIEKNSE
Description: CHO cells stable expressing A2B or A3ARs and the plasmid encoding the biosensor were used to study functional agonism and antagonism of understudy ligands. The desired cell number was incubated in equilibration medium containing a 3% v/v GloSensor cAMP reagent stock solution, 10% FBS and 87% of CO2 independent media. After 2 h of incubation, cells were dispensed in wells of 384 well plate and when a steady-state basal signal was obtained the agonism profile was studied, adding to wells the reference agonist NECA or compounds at different concentrations. In the case of the Gi coupled receptor A3AR Forskolin (FSK) 10 μM was added 10 min after the agonists and various luminescence readings were performed at different incubation times.
The antagonist profile of the compounds was evaluated by assessing their ability to counteract an agonist-induced increase or decrease (A2B and A3ARs, respectively) of cAMP accumulation. The cells were incubated with different antagonist concentrations and then treated with a fixed dose of NECA (10 μM for A2BAR and 1 μM for A3AR). FSK 10 μM was added 10 min after the agonists and various luminescence reads were performed at different incubation times.
Responses were expressed as percentage of the maximal relative luminescence units (RLU) and concentration–response curves were fitted by a nonlinear regression with the Prism program (GraphPAD Software, San Diego, CA, USA). The agonist or antagonist profile of compounds was expressed as EC50 or IC50, respectively. Each concentration was tested three–five times in duplicate and the values are given as the mean ± S.E.

human recombinant A1AR = target: T2, human recombinant A1AR (Homo sapiens, UniProt P30542); assay: Radioligand binding assay, displacement of [3H]CCPA in CHO cell membranes; conditions: mean ± S.E., n = 3-5, read-out: hA1R (Ki nM)
T2 sequence (P30542 1-326): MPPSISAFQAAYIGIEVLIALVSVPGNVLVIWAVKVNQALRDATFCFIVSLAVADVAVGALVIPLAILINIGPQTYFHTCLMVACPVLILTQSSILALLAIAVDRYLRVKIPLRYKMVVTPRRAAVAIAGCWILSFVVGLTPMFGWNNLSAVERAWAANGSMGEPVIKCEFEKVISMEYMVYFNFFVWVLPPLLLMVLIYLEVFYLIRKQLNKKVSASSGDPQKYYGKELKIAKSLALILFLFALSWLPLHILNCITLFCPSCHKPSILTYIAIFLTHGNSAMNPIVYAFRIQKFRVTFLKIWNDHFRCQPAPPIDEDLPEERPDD
Description: (§1) [^3H]CCPA (2-chloro-N^6-cyclopentylAdo), [^3H]NECA (5′-N-ethylcarboxamidoAdo), and [^3H]HEMADO (2-hexynyl-N^6-methylAdo) were used as respective radioligands. The results are reported as Ki values in nM (± standard errors) (Table 1). In the case of A2BAR, the potency of selected compounds was determined through a functional GloSensor cAMP assay.
(§2) All pharmacological methods followed the procedures as described earlier. In brief, membranes for radioligand binding were prepared from CHO cells stably transfected with human adenosine receptor subtypes through two centrifugations at different speeds. The first low-speed (1000 g) centrifugation allowed the removing of cell fragments and nuclei, while the second, performed at high speed (100,000 g), allowed the precipitation of the crude membrane fractions.
(§3) The binding affinity of the novel compounds was evaluated using radioligand competition experiments in CHO cells stably expressing hA1AR, hA2AAR, and hA3AR subtypes. […] Results were expressed as Ki values (dissociation constants), which were calculated with the program GraphPad (GraphPAD Software, San Diego, CA, USA). Each concentration was tested three–five times in duplicate and the values are given as the mean ± standard error (S.E.).

human recombinant A2AAR = human recombinant A2AAR (Homo sapiens, UniProt P29274); assay: Radioligand binding assay, displacement of [3H]NECA in CHO cell membranes; conditions: mean ± S.E., n = 3-5, read-out: hA2AR (Ki nM)
Chain of human recombinant A2AAR (P29274 whole entry): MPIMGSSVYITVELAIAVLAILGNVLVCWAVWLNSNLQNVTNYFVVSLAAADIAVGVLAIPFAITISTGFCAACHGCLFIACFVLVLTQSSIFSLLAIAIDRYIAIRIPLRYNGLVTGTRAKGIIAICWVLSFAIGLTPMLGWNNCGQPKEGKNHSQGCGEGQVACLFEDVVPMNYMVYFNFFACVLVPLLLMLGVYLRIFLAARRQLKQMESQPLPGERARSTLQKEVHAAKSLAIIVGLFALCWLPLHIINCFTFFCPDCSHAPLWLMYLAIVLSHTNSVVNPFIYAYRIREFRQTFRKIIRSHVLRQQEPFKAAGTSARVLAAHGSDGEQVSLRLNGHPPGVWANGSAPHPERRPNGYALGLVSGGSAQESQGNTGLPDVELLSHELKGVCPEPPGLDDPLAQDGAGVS
Description: as §1, §2, §3

human A3AR [2] = target: T1, human A3AR; assay: Radioligand binding assay, displacement of [3H]HEMADO in CHO cell membranes; conditions: for A1/A3: A3AR selectivity vs A1AR; for A1/A3 / A2A/A3: ratio of Ki values; for A2A/A3: A3AR selectivity vs A2AAR; for Ki: [3H]HEMADO, CHO membranes, mean ± S.E., n = 3-5, read-out: hA3R (Ki nM)
Description: In the case of A2BAR, the potency of selected compounds was determined through a functional GloSensor cAMP assay.
as §2, §3

[3] = tested on: PC3 prostate cancer cell line; assay: Sulforhodamine B (SRB) cell growth inhibition assay; conditions: for GI50 / CC50 / IC100: Homo sapiens, 48 h; for CC50: read-out: LC50 (μM); for IC100: read-out: TGI (μM); for TGI: PC3, 48 h, concentration to inhibit 100% of cell growth, mean ± SD

SMILES	IC50 (human A3AR [1]) [nM]	functional behaviour at A3AR (agonist/antagonist) (human A3AR [1])	Ki (human recombinant A1AR) [nM]	Ki (human recombinant A2AAR) [nM]	A1/A3 (human A3AR [2]) [fold]	A2A/A3 (human A3AR [2])	Ki (human A3AR [2]) [nM]	GI50 [3] [µM]	CC50 [3] [µM]	IC100 [3] [µM]	TGI [3] [µM]	EC50 (human A3AR [1]) [nM]	cytotoxic activity ([3]; PC3, at concentrations up to 500 µM)
CCCCC#Cc1nc(NCCc2ccccc2)c2ncn([C@@H]3O[C@H](CO)[C@@H](O)[C@H]3O)c2n1 [Compound 10, 2-Hexynyl-N^6-(2-phenylethyl)adenosine]	31 ± 6	antagonists	129 ± 8.2	146 ± 48	86	97 fold	1.5 ± 0.3	13 ± 1.6	452 ± 10.5	77	77 ± 2.9		
OC[C@H]1O[C@@H](n2cnc3c(NCCc4ccccc4)nc(C#Cc4ccccc4)nc32)[C@H](O)[C@@H]1O [Compound 11, 2-Phenylethynyl-N^6-(2-phenethyl)adenosine]	79 ± 15	antagonists	809 ± 117	2980 ± 271	213	785 fold	3.8 ± 0.6	2.5 ± 0.8	151 ± 8.9	19	19 ± 6.1		
OC[C@H]1O[C@@H](n2cnc3c(NCC(c4ccccc4)c4ccccc4)nc(C#Cc4ccccc4)nc32)[C@H](O)[C@@H]1O [Compound 12, N^6-(2,2-Diphenylethyl)-2-phenylethynyladenosine]	153 ± 12	antagonists	211 ± 53	450 ± 84	2	4 fold	106 ± 25	14 ± 0.9	59 ± 10.1	29	29 ± 4.9		
OC[C@H]1O[C@@H](n2cnc3c(NCCc4ccccc4)nc(SCCc4ccccc4)nc32)[C@H](O)[C@@H]1O [Compound 13, N^6-(2-Phenylethyl)-2-phenylethylthioadenosine]			263 ± 19	3360 ± 752	9	112 fold	30 ± 7.1	41 ± 4.2	> 500	> 500	>500		
OC[C@H]1O[C@@H](n2cnc3c(NCCc4ccccc4)nc(Cl)nc32)[C@H](O)[C@@H]1O [Compound 15, 2-Chloro-N^6-(2-phenylethyl)adenosine]		full A3AR agonist; also recorded: A3AR full agonists	1.64 ± 0.37	660 ± 129	68	27,500 fold	0.024 ± 0.005	51 ± 5.2	> 500	262	262 ± 8.3	14 ± 3.4	no cytotoxic activity
OC[C@H]1O[C@@H](n2cnc3c(NCC(c4ccccc4)c4ccccc4)nc(Cl)nc32)[C@H](O)[C@@H]1O [Compound 16, 2-Chloro-N^6-(2,2-diphenylethyl)-adenosine]			0.76 ± 0.2	266 ± 35	6	2046 fold	0.13 ± 0.01	35 ± 3.1	253 ± 11.5	94	94 ± 4.1		

Reference: PMC8879107, “A3 Adenosine Receptor Antagonists with Nucleoside Structures and Their Anticancer Activity” (Pharmaceuticals, 2022)
